{"source": "patent US12134664B2", "about": "“Muramyl peptide derivatives” (Bharat Biotech International Limited, priority 2015, dated 2024)", "key": {"[1]": {"test_system": "HBsAg specific IgG antibody", "experiment": "Endpoint titer of HBsAg specific total IgG by ELISA after immunization", "format": "in vivo, BALB/c mice", "conditions": "for HBsAg specific IgG antibody endpoint titer: i.m. Day 0 & 28, Day 42 sera", "experimental": "Female BALB/c mice (6-8 week old, n=6/group) were vaccinated intramuscularly (i.m, at two quadriceps) on Day 0 & Day 28 with vehicle control or Hepatitis B antigen (20 μg/mouse/dose/100 μl, 50 μl per quadricep) with and without MDP-ET (10 μg or 50 μg/mouse/dose/100 μl) diluted in Phosphate buffered saline. Prior to immunization, Hepatitis B surface antigen was mixed with MDP-ET, by gentle agitation (1:1 ratio), under sterile conditions. Mice were bled and euthanized on Day 42. Blood was collected & serum was isolated to evaluate analyze antigen specific total IgG antibody titer (as in example 3.1.2) and antibody subclasses (isotypes namely IgG1 or IgG2a or IgG3, as in example 3.1.3).\nSerial dilutions of individual serum samples ([…] ranging from 1:50 to 819200) were used to determine the endpoint titer of antigen specific total IgG antibody titer by ELISA. Details of assay protocol as described below, For analysis of antigen specific antibody titer, hepatitis B surface antigen was suspended in 50 mM carbonate bicarbonate buffer, pH 9.6 and coated at a concentration (lug/ml, 100 μl/well) in 96 well plates and kept at 4° C. for overnight. Next day, plates were washed with washing buffer (PBST-Phosphate buffered saline, pH 7.4 with 0.05% Tween) and blocked with blocking buffer (PBS with 1% BSA) at RT for 1-2 hr. ELISA plates were washed again with wash buffer (PBS, 0.1% Tween™20) and added serially diluted (in PBS, 0.1% BSA, 0.05% Tween™20, 0.02% sodium azide) sera from hyper immunized mice and incubated at RT for 1 hr. After incubation, wells were again washed and added Goat Anti-mouse IgG HRP conjugate antibody at a dilution of 1:5000 & incubated for 1 hr at RT. Later, wells were washed, and developed with OPD (O-phenylene diamine) as a substrate for 15 min. Reaction was stopped using 2N H2SO4. Absorbance was read at 490 nm. Threshold (Mean+3SD) was established by taking the absorbance of negative control (PBS) group, followed by the reactive index (ratio of absorbance at a particular dilution & threshold), so as to determine end point titer. Based on this calculation, highest dilution at which reactive index value[…] was considered as endpoint antibody titer dilution. Antigen specific antibody endpoint titer in the presence & absence of MDP-ET was represented as in FIG. 5a."}, "[2]": {"test_system": "IgG isotypes (IgG1, IgG2a & IgG3) raised against HBsAg", "experiment": "TH1:TH2 index from HBsAg specific IgG isotypes", "format": "in vivo, BALB/c mice", "conditions": "HBsAg in the presence of MDP-ET (10 & 50 μg/mouse)", "excerpt": "It is known that IgG subclasses produced after the immunization against given antigen, primarily determines the function of the antibody or indirectly measures the relative contribution of TH1 versus TH2 type cytokine induction. More specifically, production of IgG1 antibodies induces TH2 type cytokines, whereas production of IgG2a & IgG3 antibodies induces TH1 type cytokines. […] In this context, in the present invention, we determined the levels of IgG isotypes (IgG1, IgG2a & IgG3), raised against HBsAg in the presence or absence of MDP-ET (at 10 μg/mouse & 50 μg/mouse) and calculated TH1:TH2 index then calculated as ([IgG2a+IgG3]/2)/(IgG1). Details of assay protocol as described below as in example 3.1.3. According to such calculation, an index value less than 1 stands for a TH2 polarization; an index value greater than 1 stands for a TH1 polarization.\nAnalysis of antigen specific IgG antibody subclasses (isotypes namely IgG1 or IgG2a or IgG3) was performed as mentioned in example 3.1.2, except at one step, where goat anti-mouse IgG1 or IgG2a or IgG3 HRP was used at a dilution of 1:5000 (in place of goat anti-mouse IgG) TH1:TH2 index obtained at 10 & 50 μg/mouse of MDP-ET is as shown in FIG. 5c."}}, "data": [{"smiles": "CCOC(=O)N[C@H]1C(O)O[C@H](CO)[C@@H](O)[C@@H]1O[C@H](C)C(=O)N[C@@H](C)C(=O)N[C@H](CCC(=O)O)C(N)=O", "note": "(stereo partly drawn) [MDP-ET, (4R)-5-amino-4-((2S)-2-((2R)-2-(((3R,4R,5S,6R)-3-((ethoxycarbonyl)amino)-2,5-dihydroxy-6-(hydroxymethyl)tetrahydro-2H-pyran-4-yl)oxy)propanamido)propanamido)-5-oxopentanoic acid]", "values": [{"measurement": "increase of HBsAg specific IgG antibody titer versus HBsAg alone", "setting": "[1]; MDP-ET 10 μg/mouse", "result": 4, "unit": "fold"}, {"measurement": "HBsAg specific IgG antibody endpoint titer", "setting": "[1]; MDP-ET 10 μg/mouse + HBsAg 20 μg", "result": 51200, "unit": "dilution"}, {"measurement": "increase of HBsAg specific IgG antibody titer versus HBsAg alone", "setting": "[1]; MDP-ET 50 μg/mouse", "result": 8, "unit": "fold"}, {"measurement": "HBsAg specific IgG antibody endpoint titer", "setting": "[1]; MDP-ET 50 μg/mouse + HBsAg 20 μg", "result": 204800, "unit": "dilution"}, {"measurement": "increase of humoral response (TH2), dose dependent", "setting": "[1]; mice vaccinated with HBsAg in the presence of MDP-ET (10 and 50 μg/mouse)", "result": "4-8 fold"}, {"measurement": "TH1:TH2 index ([IgG2a+IgG3]/2)/(IgG1)", "setting": "[2]", "result": 10}]}]}
